The record followed here is US10202356B2, “JAK2 and ALK2 inhibitors and methods for their use” (Tolero Pharmaceuticals, Inc., priority 2013, dated 2019).

As a reminder, the Cmax is the maximum level reached in the sampled fluid or tissue. Broadly, the Tmax is the time from dosing to the highest level. Usually t½ stands for the time needed for the level to fall by half in the phase considered. Usually pIC50 stands for the IC50 on a negative log10 scale, so that one unit is a factor of ten. For orientation: bioavailability means dose-corrected exposure relative to a reference, in per cent.

Data set [1] can be described thus: Pharmacokinetic profile, IV and PO administration. The format is in vivo, female rats. Conditions: for AUC 0-inf / Cmax / F / Tmax / t½: PO, free base or salt form as labelled. Further details: AUC 0-inf: concentration or dose not given beside the values.
The target of data set [2] is T1, JAK2 kinase (Homo sapiens, UniProt O60674).
T1 construct: purchased Life Technologies (Drug Discovery and Development Services, Madison, Wis.)
The data set can be described thus: JAK2 kinase assay, Z'-LYTE technology. It is filed as biochemical. As for the experimental part: (§1) Biochemical assays to measure the inhibitory effects of the compounds were performed by the Drug Discovery and Development Services at Life Technologies (Madison, Wis.). JAK2 kinase assays were performed using Z′-LYTE® technology, while ALK2 inhibition was tested using a LanthaScreen® binding assay.

Data set [3] deals with T2, ALK2 (Homo sapiens, UniProt Q04771).
T2 construct: purchased Life Technologies (Drug Discovery and Development Services, Madison, Wis.)
T2 sequence (Q04771 21-509): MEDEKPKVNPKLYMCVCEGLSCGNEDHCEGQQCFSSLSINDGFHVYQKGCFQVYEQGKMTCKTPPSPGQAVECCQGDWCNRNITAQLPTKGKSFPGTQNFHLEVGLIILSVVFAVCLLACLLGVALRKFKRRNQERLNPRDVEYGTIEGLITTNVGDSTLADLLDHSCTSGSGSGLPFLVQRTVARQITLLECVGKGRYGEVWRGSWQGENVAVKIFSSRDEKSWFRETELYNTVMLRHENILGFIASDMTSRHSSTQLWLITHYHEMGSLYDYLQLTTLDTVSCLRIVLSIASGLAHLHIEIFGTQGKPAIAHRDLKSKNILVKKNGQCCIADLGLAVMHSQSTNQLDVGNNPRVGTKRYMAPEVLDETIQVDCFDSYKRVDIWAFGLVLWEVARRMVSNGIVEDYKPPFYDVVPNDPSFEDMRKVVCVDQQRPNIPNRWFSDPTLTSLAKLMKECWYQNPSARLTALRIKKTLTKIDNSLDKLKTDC
The data set can be described thus: ALK2 inhibition, LanthaScreen binding assay. The protocol: as §1
(Time-resolved FRET reads energy transfer from a long-lived donor to a nearby acceptor.)

Data set [4] relates to hepcidin expression induced by BMP2 in HEPG2 cells. The data set can be described thus: BMP2-induced hepcidin expression in HEPG2 cells. The format is cell-based. Conditions: 0.3 μM.
Data set [5] concerns hepcidin expression of HEPG2 cells. The data set can be described thus: Baseline hepcidin expression in HEPG2 cells, real-time RT-PCR. The note with it: 3 μM, 6 hours, HEPG2, normalized to β-actin. The format is cell-based. The protocol: Hepcidin expression of HEPG2 cells treated with exemplary compounds of the invention was tested. […] To observe the ability of the compounds to effect baseline hepcidin expression, HEPG2 (hepatocellular carcinoma) cells were treated with compound for 6 hours and then assayed for hepcidin expression by real-time RT-PCR (normalized to levels of β-actin). Hepcidin expression was lowered in a dose dependent manner. Hepcidin expression was inhibited by 90% at a 3 μM concentration of Compound 12. […] In contrast, Compound 7 treated cells produced a 50% decrease in the induction when treated at 0.3 μM.
A general note: In qPCR the cycle at which signal appears reflects the starting amount.

pIC50: −log10 of the molar value.

T1 sequence (O60674 whole entry): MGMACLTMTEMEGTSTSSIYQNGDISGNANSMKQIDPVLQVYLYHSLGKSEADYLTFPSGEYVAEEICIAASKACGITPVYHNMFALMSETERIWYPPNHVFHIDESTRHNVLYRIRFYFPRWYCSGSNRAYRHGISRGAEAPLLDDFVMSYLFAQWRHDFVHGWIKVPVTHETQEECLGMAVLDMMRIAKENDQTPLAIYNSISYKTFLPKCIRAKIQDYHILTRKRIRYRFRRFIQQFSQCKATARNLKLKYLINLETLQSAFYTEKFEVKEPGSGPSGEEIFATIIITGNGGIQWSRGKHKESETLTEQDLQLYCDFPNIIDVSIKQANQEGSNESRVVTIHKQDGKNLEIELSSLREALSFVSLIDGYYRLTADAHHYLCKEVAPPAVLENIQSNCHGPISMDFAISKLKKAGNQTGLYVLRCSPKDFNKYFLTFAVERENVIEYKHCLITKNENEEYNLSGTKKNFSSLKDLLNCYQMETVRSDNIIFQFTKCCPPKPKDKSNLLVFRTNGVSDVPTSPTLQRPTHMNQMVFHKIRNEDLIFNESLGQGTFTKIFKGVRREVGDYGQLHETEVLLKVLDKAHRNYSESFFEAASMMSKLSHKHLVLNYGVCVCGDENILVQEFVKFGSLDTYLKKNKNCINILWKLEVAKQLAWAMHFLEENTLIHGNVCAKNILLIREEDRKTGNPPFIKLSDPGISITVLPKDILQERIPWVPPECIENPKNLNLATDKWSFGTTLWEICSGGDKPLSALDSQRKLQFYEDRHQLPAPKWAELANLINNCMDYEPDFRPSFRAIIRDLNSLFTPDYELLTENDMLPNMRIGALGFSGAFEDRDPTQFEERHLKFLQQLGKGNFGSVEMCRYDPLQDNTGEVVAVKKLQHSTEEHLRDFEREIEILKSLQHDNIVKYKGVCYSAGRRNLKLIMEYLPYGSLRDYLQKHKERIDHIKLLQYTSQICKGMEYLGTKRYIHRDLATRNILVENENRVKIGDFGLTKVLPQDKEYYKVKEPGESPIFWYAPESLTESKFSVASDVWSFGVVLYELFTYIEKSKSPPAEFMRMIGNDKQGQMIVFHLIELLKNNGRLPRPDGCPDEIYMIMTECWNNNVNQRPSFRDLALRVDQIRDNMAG

For `CC(=O)O` [Acetate], in data set [1], the “AUC 0-inf” value stood at 1200.1 ng·h/mL, the Cmax came to 176.8 ng/mL, the F turned out to be 24.7 % IV and the Tmax stood at 0.5 h. In data set [1], the t½ was found to be 5.8 h.
Take `CN1CCN(c2ccc(Nc3ncc(Cl)c(Nc4cccc(CC#N)c4)n3)cc2F)CC1` [Compound 1, 2-(3-((5-chloro-2((3-fluoro-4-(4-methylpiperazin-1-yl)phenyl)amino)pyrimidin-4-yl)amino)phenyl)acetonitrile]: the pIC50 in data set [2] and in data set [3] was less than 6.00 each time.
As for `Cc1cnc(Nc2ccc(N3CCN(C)CC3)c(F)c2)nc1Nc1cccc(CC#N)c1` [Compound 2, 2-(3-((2-((3-fluoro-4-(4-methylpiperazin-1-yl)phenyl)amino)-5-methylpyrimidin-4-yl)amino)phenyl)acetonitrile], the pIC50 in data set [2] and in data set [3] was less than 6.00 throughout.
For `CN1CCN(c2ccc(Nc3ncc(C#N)c(Nc4cccc(CC#N)c4)n3)cc2F)CC1` [Compound 3, 4-((3-(cyanomethyl)phenyl)amino)-2((3-fluoro-4-(4-methylpiperazin-1-yl)phenyl)amino)pyrimidine-5-carbonitrile], the pIC50 in data set [2] and in data set [3] was less than 6.00 each time.
Consider `COc1cc(Nc2nccc(Nc3cccc(C4(C#N)CC4)c3)n2)cc(OC)c1OC` [Compound 5, 1-(3-(2-(3,4,5-trimethoxyphenylamino)pyrimidin-4-ylamino)phenyl)cyclopropanecarbonitrile], for which the pIC50 in data set [2] is greater than 8.00; in data set [3] it was less than 6.00.
For `N#CC1(c2cccc(Nc3ccnc(Nc4ccc(N5CCN(CCO)CC5)c(Cl)c4)n3)c2)CC1` [Compound 7, 1-(3-((2-((3-chloro-4-(4-(2-hydroxyethyl)piperazin-1-yl)phenyl)amino)pyrimidin-4-yl)amino)phenyl) cyclopropanecarbonitrile], the “decrease in the BMP2 induction of hepcidin” value in data set [4] was 50%. The pIC50 in data set [2] is greater than 8.00; in data set [3], 6.00 to 8.00.
For the compound `CN1CCN(c2ccc(Nc3nccc(Nc4cccc(C5(C#N)CC5)c4)n3)cc2F)CC1` [Compound 8, 1-(3-((2-((3-fluoro-4-(4-methylpiperazin-1-yl)phenyl)amino)pyrimidin-4-yl)amino)phenyl)cyclopropanecarbonitrile], the pIC50 is greater than 8.00 in data set [2] and 6.00 to 8.00 in data set [3].
For the compound `COc1cnc(Nc2ccc(N3CCN(CCO)CC3)c(Cl)c2)nc1Nc1cccc(C2(C#N)CC2)c1` [Compound 9, 1-(3-(2-(3-chloro-4-(4-(2-hydroxyethyl)piperazin-1-yl)phenylamino)-5-methoxypyrimidin-4-ylamino)phenyl)cyclopropanecarbonitrile], the pIC50 in data set [2] is 6.00 to 8.00; in data set [3] it was less than 6.00.
`OCCN1CCN(c2ccc(Nc3nccc(Nc4cccnc4-c4ccccn4)n3)cc2Cl)CC1` [Compound 10, 2-(4-(4-(4-(2,2′-bipyridin-3-ylamino)pyrimidin-2-ylamino)-2-chlorophenyl)piperazin-1-yl)ethanol]: the pIC50 in data set [2] and in data set [3] was 6.00 to 8.00 in each case.
As to `COc1cc(Nc2nccc(Nc3cccnc3-c3ccccn3)n2)ccc1N1CCN(C)CC1` [Compound 11, N^4-(2,2′-bipyridin-3-yl)-N^2-(3-methoxy-4-(4-methylpiperazin-1-yl)phenyl)pyrimidine-2,4-diamine], the values for the pIC50 in data set [2] and in data set [3] were less than 6.00 and greater than 8.00, respectively.
Turning to `COc1cc(Nc2nccc(Nc3cccnc3-c3ccccn3)n2)cc(OC)c1OC` [Compound 12, N^4-(2,2′-bipyridin-3-yl)-N^2-(3,4,5-trimethoxyphenyl)pyrimidine-2,4-diamine], the pIC50 was less than 6.00 in data set [2] and greater than 8.00 in data set [3]. In addition, the “plasma concentration levels after 24 hours” value in data set [1] (female rats, 24 hours) is listed as “remained high”. For the same compound, the bioavailability in data set [1] (rat, plasma, female rats, oral dose) is 95%. This compound also gave a Hepcidin expression inhibited in data set [5] of 90%.
Regarding `COc1cnc(Nc2ccc(N3CCN(CCO)CC3)c(Cl)c2)nc1Nc1cccnc1-c1ccccn1` [Compound 13, 2-(4-(4-(4-(2,2′-bipyridin-3-ylamino)-5-methoxypyrimidin-2-ylamino)-2-chlorophenyl)piperazin-1-yl)ethanol], the pIC50 in data set [2] and in data set [3] was less than 6.00 each time.
For the compound `COc1cc(Nc2ncc(OC)c(Nc3cccnc3-c3ccccn3)n2)ccc1N1CCN(C)CC1` [Compound 14, N^4-([2,2′-bipyridin]-3-yl)-5-methoxy-N^2-(3-methoxy-4-(4-methylpiperazin-1-yl)phenyl)pyrimidine-2,4-diamine], the pIC50 in data set [2] was 6.00 to 8.00; in data set [3] it was less than 6.00.
For `Cc1ccc(Nc2ccnc(Nc3ccc(N4CCN(CCO)CC4)c(Cl)c3)n2)c(-c2ccccn2)n1` [Compound 15, 2-(4-(2-chloro-4-(4-(6-methyl-2,2′-bipyridin-3-ylamino)pyrimidin-2-ylamino)phenyl)piperazin-1-yl)ethanol], in that order: less than 6.00 and 6.00 to 8.00.
Consider `COc1cc(Nc2nccc(Nc3ccc(C)nc3-c3ccccn3)n2)ccc1N1CCN(C)CC1` [Compound 16, N^2-(3-methoxy-4-(4-methylpiperazin-1-yl)phenyl)-N^4-(6-methyl-2,2′-bipyridin-3-yl)pyrimidine-2,4-diamine], for which the pIC50 in data set [2] was less than 6.00; in data set [3], 6.00 to 8.00.
Turning to `COc1cc(Nc2nccc(Nc3ccc(C)nc3-c3ccccn3)n2)cc(OC)c1OC` [Compound 17, N^4-(6-methyl-2,2′-bipyridin-3-yl)-N^2-(3,4,5-trimethoxyphenyl)pyrimidine-2,4-diamine], the figures for the pIC50 in data set [2] and in data set [3] were less than 6.00 and 6.00 to 8.00, respectively.
On to `Cc1ccc(Nc2ccnc(Nc3ccc(N4CCN(CCO)CC4)c(Cl)c3)n2)c(CC#N)c1` [Compound 18, 2-(2-(2-(3-chloro-4-(4-(2-hydroxyethyl)piperazin-1-yl)phenylamino)pyrimidin-4-ylamino)-5-methylphenyl)acetonitrile], for which the pIC50 in data set [2] and in data set [3] was 6.00 to 8.00 in each case.
`COc1cc(Nc2nccc(Nc3ccc(C)cc3CC#N)n2)ccc1N1CCN(C)CC1` [Compound 19, 2-(2-(2-(3-methoxy-4-(4-methylpiperazin-1-yl)phenylamino)pyrimidin-4-ylamino)-5-methylphenyl)acetonitrile]: the pIC50 in data set [2] and in data set [3] was 6.00 to 8.00 throughout.
For the compound `COc1cc(Nc2nccc(Nc3ccc(C)c(CC#N)c3)n2)ccc1N1CCN(C)CC1` [Compound 21, 2-(5-(2-(3-methoxy-4-(4-methylpiperazin-1-yl)phenylamino)pyrimidin-4-ylamino)-2-methylphenyl)acetonitrile], the pIC50 was greater than 8.00 in data set [2] and 6.00 to 8.00 in data set [3].
`N#CCc1cc(F)ccc1Nc1ccnc(Nc2ccc(N3CCN(CCO)CC3)c(Cl)c2)n1` [Compound 22, 2-(2-(2-(3-chloro-4-(4-(2-hydroxyethyl)piperazin-1-yl)phenylamino)pyrimidin-4-ylamino)-5-fluorophenyl) acetonitrile]: the pIC50 in data set [2] and in data set [3] was 6.00 to 8.00 in each case.
Regarding `O=C(O)C(O)C(O)C(=O)O` (stereo not shown) [Tartaric], in data set [1], the “AUC 0-inf” value amounted to 370.9 ng·h/mL, the Cmax stood at 18.5 ng/mL and the Tmax worked out at 0.3 h.
Regarding Citrate, in data set [1], the “AUC 0-inf” value came out at 801.5 ng·h/mL, the Cmax was determined as 93.4 ng/mL, the F is given as 22.4 % IV and the Tmax came to 0.5 h. The t½ in data set [1] was found to be 6.8 h.
The like results for H2SO4 [Compound H2SO4] were, in that order, 538.3 ng·h/mL, 53.8 ng/mL, 17.8 % IV, 1.0 h and 9.2 h.
As for Maleate, in data set [1], the “AUC 0-inf” value was 484.8 ng·h/mL, the Cmax worked out at 34.2 ng/mL, the F is 12.1 % IV and the Tmax stood at 8.0 h. Also, in data set [1], the t½ is listed as 8.5 h.
Consider Oxalate, for which, in data set [1], the “AUC 0-inf” value came to 721.2 ng·h/mL, the Cmax is on record as 81.9 ng/mL, the F was 17.3 % IV and the Tmax came out at 0.5 h. The t½ in data set [1] amounted to 7.3 h.
